According to patent US6087509A, “1-Imidazolidinyl-phenyls” (Hoechst Marion Roussel, priority 1995, dated 2000):

Columns and labels:
[1] = system: costovertebral gland of the hamster; experiment: Reducing effect on the costo-vertebral gland of the hamster (topical antiandrogen activity); type: in vivo; conditions: topical on right-hand C.V.G., 3 weeks (14 administrations), male hamsters, reduction in surface area
Procedure: 2) Determination of the Reducing Effect on the Costo-vertebral Gland of the Hamster
The local activity (topical) of an antiandrogen is determined by the reduction which it brings about in the surface area of the costovertebral gland of the hamster (hereafter C.V.G.), an androgen-dependent organ situated on the flanks of the animal.
The animals are male hamsters weighing about 140 g, 14 weeks old and originating from the Charles River breed (USA), they are subjected to a long photoperiod (16 hours of light, 8 hours of darkness). The animals are treated every day, except for the weekend, for 3 weeks (14 administrations). The product to be tested is applied, by topical route, on the right-hand C.V.G., the left-hand one serving as the control. The surface of the gland has been shaved beforehand. The animals are sacrificed by bleeding the carotid artery 24 hours after the last treatment. The C.V.G.'s are removed, measured and weighed. The local activity of a product is determined by the % of reduction in the surface area of the C.V.G. which it induces in comparison with the 1st day of the experiment and compared to the animals treated with solvent only.

androgen receptor = biological target: T1, androgen receptor (Rattus norvegicus, UniProt P15207); experiment: Affinity for the androgen receptor (relative bond affinity, tritiated testosterone displacement in rat prostate cytosol); type: binding
T1 construct: from tissue; host or cells: prostate cytosol of castrated male Sprague Dawley rats
T1 sequence (P15207 1-902): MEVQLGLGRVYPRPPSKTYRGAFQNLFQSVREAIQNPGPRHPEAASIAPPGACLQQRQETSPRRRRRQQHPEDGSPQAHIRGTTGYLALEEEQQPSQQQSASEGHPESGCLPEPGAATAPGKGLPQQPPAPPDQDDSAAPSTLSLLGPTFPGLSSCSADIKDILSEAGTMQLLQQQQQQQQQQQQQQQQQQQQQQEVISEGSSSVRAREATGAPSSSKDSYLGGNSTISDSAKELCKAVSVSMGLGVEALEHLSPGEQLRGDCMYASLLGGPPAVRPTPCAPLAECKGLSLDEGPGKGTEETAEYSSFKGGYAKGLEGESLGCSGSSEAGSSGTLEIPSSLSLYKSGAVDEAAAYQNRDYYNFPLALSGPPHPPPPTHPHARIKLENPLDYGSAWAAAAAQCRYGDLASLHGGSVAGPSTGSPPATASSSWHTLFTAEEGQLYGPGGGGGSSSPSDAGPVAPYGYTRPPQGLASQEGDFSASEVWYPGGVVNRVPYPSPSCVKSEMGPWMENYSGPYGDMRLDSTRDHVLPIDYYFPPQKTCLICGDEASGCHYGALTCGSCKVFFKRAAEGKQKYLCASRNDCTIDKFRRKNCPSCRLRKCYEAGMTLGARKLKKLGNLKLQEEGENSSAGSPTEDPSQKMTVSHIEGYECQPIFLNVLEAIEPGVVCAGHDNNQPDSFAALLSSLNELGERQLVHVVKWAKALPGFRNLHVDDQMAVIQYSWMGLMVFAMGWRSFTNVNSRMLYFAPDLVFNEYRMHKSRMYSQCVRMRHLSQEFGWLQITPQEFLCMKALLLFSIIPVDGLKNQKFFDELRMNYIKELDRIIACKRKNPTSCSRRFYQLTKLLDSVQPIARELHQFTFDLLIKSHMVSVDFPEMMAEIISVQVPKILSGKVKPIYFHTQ
Procedure: The straight line of the equation I50 =(B/Tmax+B/Tmin)/2 is determined.

[2] = system: prostate in an intact male rat; experiment: Reducing effect of the weight of the prostate in an intact male rat (systemic antiandrogen activity); type: in vivo; conditions: day 0 to 4 and day 7 to 10, intact male Sprague Dawley rats, compared to solvent only
Procedure: 3) Determination of the Reducing Effect of the Weight of the Prostate in an Intact Male Rat
The systemic activity of an antiandrogen is determined by the reduction in the weight of the prostate which it brings about in an intact animal.
The animals used are male rats of the Sprague Dawley strain weighing about 200 g, 7 weeks old, originating from the Iffa Credo breed (France). The experiment is carried out over two weeks, except for the weekend.
The product can be administered by oral, sub-cutaneous or percutaneous route.
The solvents used are then: by oral route: 0.5% aqueous solution of methylcellulose under a volume of 5 ml/kg, by sub-cutaneous route: wheatgerm oil in 10% ethanol under a volume of 0.2 ml/kg, and by percutaneous route: ethanol under a volume of 50 ul on previously-shaved skin.
The treatment is carried out from day 0 to day 4 then (after the weekend) from day 7 to day 10. The animals are sacrificed the day after the last treatment by bleeding the carotid artery, the prostates are removed and fixed in demineralized water containing 10% formol for 72 hours. They are then dissected and weighed.

Row | Structure (SMILES) | % CVG reduction with 3 μg/jour [1] | RBA: Incubation 24 hours (androgen receptor) | % reduction in the prostate weight with 3 mg/kg P.O. [2]
1 | N#Cc1ccc(N2C(=O)N(CCCCO)C3(CCCCC3)C2=O)cc1C(F)(F)F [Example 9, 4-[2,4-dioxo-1-(4-hydroxybutyl)-1,3-diazaspiro-[4.5]decan-3-yl]-2-(trifluoromethyl)-benzonitrile] | -25% | – | –
2 | CCN1C(=O)N(c2ccc(C#N)c(C(F)(F)F)c2)C(=O)C1(CF)CF [Example 3, 4-(2,5-dioxo-4,4-bis(fluoromethyl)-3-ethyl-1-imidazolidinyl)-2-(trifluoromethyl)-benzonitrile] | -33% | 43 | -20%
3 | CC1(C)C(=O)N(c2ccc(C#N)c(C(F)(F)F)c2)C(=O)N1CC#CCO [Example 8, 4-(3-(4-hydroxy-2-butyn-1-yl)-4,4-dimethyl-2,5-dione-1-imidazolidinyl)-2-(trifluoromethyl)-benzonitrile] | – | – | -35%
4 | N#Cc1ccc(N2C(=O)N(CCF)C(CF)(CF)C2=O)cc1C(F)(F)F [Example 1, 4-(4,4-bis(fluoromethyl)-2,5-dioxo-3-(2-fluoroethyl)-1-imidazolidinyl)-2-(trifluoromethyl)-benzonitrile] | -32% | 42 | -27%
